Values of other authors, collected in PubChem BioAssay AID1259410 (Chemical Carcinogenesis Research Information System (CCRIS), 2018).

System: rodent tumor promotion studies, tumor incidence
Experiment: CCRIS tumor promotion studies
Excerpt: The CCRIS database contains chemical records with carcinogenicity, mutagenicity, tumor promotion, and tumor inhibition test results. It was developed by the National Cancer Institute (NCI). Data are derived from studies cited in primary journals, current awareness tools, NCI reports, and other sources. Test results have been reviewed by experts in carcinogenesis and mutagenesis.
CCRIS provides historical information from the years 1985 - 2011. It is no longer updated.
This is an archive assay for CCRIS tumor promotion studies.

Oc1ccc(Br)cc1
outcome (Carcinogen: 7,12-DIMETHYLBENZ(A)ANTHRACENE, Doses [Carcinogen]: TOP, Route [Carcinogen]: DERMAL, Route [Promoter]: DERMAL, Species: MOUSE, Strain/Sex: FEMALE): integumentary system (skin)

C=C[C@@]1(C)CC[C@](C)(C(C)C)c2cc3c4c(c[nH]c4c21)C[C@@H](CO)NC(=O)[C@H](C(C)C)N3C
outcome (Carcinogen: 7,12-DIMETHYLBENZ[A]ANTHRACENE, 57-97-6, Doses [Carcinogen]: 100 UG ONCE, Doses [Promoter]: 0, 5.5 NMOL 2/WK FOR 19 WK BEGINNING 1 WK POST CARCINOGEN DOSE (STUDY DURATION: 20 WK), Route [Carcinogen]: DERMAL, Route [Promoter]: DERMAL, Species: MOUSE, Strain/Sex: CD-1/FEMALE): skin: tumor | outcome (Carcinogen: 7,12-DIMETHYLBENZ[A]ANTHRACENE, Doses [Carcinogen]: 100 UG ONCE, Doses [Promoter]: 2.5 UG IN ACETONE 2/WK FOR 30 WK, Route [Carcinogen]: DERMAL, Route [Promoter]: DERMAL, Species: MOUSE, Strain/Sex: CD-1/FEMALE): integumentary system (skin): papilloma, carcinoma

CCCCCCCCCCCCCCCCCCCCCCCCCCCC
outcome (Carcinogen: 7,12-DIMETHYLBENZ(A)ANTHRACENE, Doses [Carcinogen]: TOP, Route [Carcinogen]: DERMAL, Route [Promoter]: DERMAL, Species: MOUSE, Strain/Sex: MALE): integumentary system (skin)

C[C@H](CCC(=O)O)[C@H]1CC[C@H]2[C@@H]3CC[C@@H]4C[C@H](O)CC[C@]4(C)[C@H]3CC[C@]12C
outcome (Carcinogen: 3-METHYLCHOLANTHRENE, 56-49-5, Doses [Carcinogen]: 3 MG IN BEESWAX PELLET, Doses [Promoter]: 0, 3 MG IN BEESWAX PELLET (STUDY DURATION: 5 MO), Route [Carcinogen]: IMPLANT, Route [Promoter]: IMPLANT, Species: HAMSTER): gallbladder: tumor | outcome (Doses [Carcinogen]: IR, Route [Carcinogen]: RECTAL, Route [Promoter]: RECTAL, Species: RAT, Strain/Sex: MALE,FEMALE): colon

O=C(O)C(Cl)Cl
outcome (Carcinogen: N-METHYL-N-NITROSOUREA, 684-93-5, Doses [Carcinogen]: 25 MG/KG IN STERILE SALINE ONCE, Doses [Promoter]: 0, 25 MMOL/L IN DRINKING WATER FOR 44 WK BEGINNING 2 WK POST CARCINOGEN DOSE (STUDY DURATION: 46 WK), Route [Carcinogen]: INTRAPERITONEAL, Route [Promoter]: ORAL, Species: MOUSE, Strain/Sex: B6C3F1/FEMALE): liver: adenoma | outcome (Carcinogen: N-METHYL-N-NITROSOUREA, 684-93-5, Doses [Carcinogen]: 25 MG/KG ONCE AT 15 D OF AGE, Doses [Promoter]: 0, 20 NMOL/L IN DRINKING WATER FOR 31 WK BEGINNING AT 7 WK OF AGE (STUDY DURATION: 31 WK), Route [Carcinogen]: INTRAPERITONEAL, Route [Promoter]: ORAL, Species: MOUSE, Strain/Sex: B6C3F1/FEMALE): liver: adenoma | outcome (Carcinogen: N-METHYL-N-NITROSOUREA, 684-93-5, Doses [Carcinogen]: 25 MG/KG ONCE AT 15 D OF AGE, Doses [Promoter]: 0, 20 NMOL/L IN DRINKING WATER FOR 52 WK BEGINNING AT 7 WK OF AGE (STUDY DURATION: 52 WK), Route [Carcinogen]: INTRAPERITONEAL, Route [Promoter]: ORAL, Species: MOUSE, Strain/Sex: B6C3F1/FEMALE): liver: adenoma

Nc1ccc(Cc2ccc(N)cc2)cc1
outcome (Carcinogen: 2,2'-DIHYDROXY-N-NITROSODIPROPYLAMINE, 53609-64-6, Doses [Carcinogen]: 280 MG/100 G IN 0.5 ML SALINE ONCE, Doses [Promoter]: 0, 1000 PPM IN DIET FOR 19 WK (STUDY DURATION: 19 WK), Route [Carcinogen]: INTRAPERITONEAL, Route [Promoter]: ORAL, Species: RAT, Strain/Sex: WISTAR/MALE): thyroid: tumor | outcome (Carcinogen: N-BIS(2-HYDROXYPROPYL)NITROSAMINE, 53609-64-6, N-ETHYL-N-HYDROXYETHYLNITROSAMINE, 13147-25-6, 3,2'-DIMETHYL-4-AMINOB, Carcinogen: N-BIS(2-HYDROXYPROPYL)NITROSAMINE, 53609-64-6, N-ETHYL-N-HYDROXYETHYLNITROSAMINE, 13147-25-6, 3,2'-DIMETHYL-4-AMINOB, Doses [Carcinogen]: 1000 MG/KG IP IN SALINE ON DAY 1 AND 4, 1500 MG/KG IG IN DISTILLED WATER ON DAY 8 AND 11, 75 MG/KG SC IN CORN OIL ON D, Doses [Carcinogen]: 1000 MG/KG IP IN SALINE ON DAY 1 AND 4, 1500 MG/KG IG IN DISTILLED WATER ON DAY 8 AND 11, 75 MG/KG SC IN CORN OIL ON D, Doses [Promoter]: 0, 0.1% IN DIET BEGINNING 1 WK POST LAST CARCINOGEN DOSE AND CONTINUING FOR 12 WK (STUDY DURATION: 16 WK), Route [Carcinogen]: INTRAPERITONEAL, GAVAGE, SUBCUTANEOUS, Route [Carcinogen]: INTRAPERITONEAL, GAVAGE, SUBCUTANEOUS, Route [Promoter]: ORAL, Species: RAT, Strain/Sex: F344/MALE): thyroid: adenoma, adenocarcinoma

OCl
outcome (Carcinogen: 4-NITROQUINOLINE-1-OXIDE, Doses [Carcinogen]: TOP, Route [Carcinogen]: DERMAL, Route [Promoter]: DERMAL, Species: MOUSE, Strain/Sex: FEMALE): integumentary system (skin)
